From article PMC7023466, “Novel N,N′-Disubstituted Acylselenoureas as Potential Antioxidant and Cytotoxic Agents” (Antioxidants, 2020)

Key:
HTB-54 cells = test: MTT cell viability assay, HTB-54; type: cell-based; conditions: Homo sapiens, HTB-54, 48 h, read-out: Growth (%) HTB-54
Procedure: (§1) The cell viability assay of each compound was carried out using the MTT assay. Each compound was dissolved in dimethyl sulfoxide (DMSO) at a concentration of 0.01 M. Serial dilutions were prepared with a non-supplemented culture medium. The effect of each compound on the cell viability was determined at two different concentrations (10 and 50 µM) in MCF-7, HTB-54, and HT-29 cells. In addition, the selected compounds were tested at six different concentrations between 0.1–100 µM in MCF-7, T47D, H1299, HTB-54, and 184B5 cells.
(§2) Briefly, 1 × 10^4 tumor cells/well or 2 × 10^4 non-tumorigenic cells/well were grown in 96-well plates for 12 h. Then, these cells were incubated with either DMSO (control) or a different concentration of each of the tested compounds for 48 h. Three hours before the termination point, 20 µL of MTT were added to measure the cellular viability. The resultant formazan crystals were dissolved in 50 µL of DMSO, and the absorbance was measured at 570 and 630 nm. The results are expressed as IC50, the half maximal inhibitory concentration. This value was calculated using OriginPro 8.5.1. software (OriginLab, Northampton, MA, USA) by nonlinear curve fitting. Furthermore, the selectivity index (SI) was calculated as the ratio of the IC50 values determined for the non-malignant and the tumor cells (IC50 (184B5)/IC50 (MCF-7). The data were obtained from at least three independent experiments performed in quadruplicates.

MCF-7 cells = test: MTT cell viability assay, MCF-7; type: cell-based, human; conditions: Homo sapiens, MCF7, 48 h, read-out: Growth (%) MCF-7
Procedure: as §1, §2

HT-29 cells = test: MTT cell viability assay, HT-29; type: cell-based; conditions: Homo sapiens, 48 h, read-out: Growth (%) HT-29
Procedure: as §1, §2

SMILES	activity at 10 µM (HTB-54 cells) [%]	activity at 50 µM (HTB-54 cells) [%]	activity at 10 µM (MCF-7 cells) [%]	activity at 50 µM (MCF-7 cells) [%]	activity at 10 µM (HT-29 cells) [%]	activity at 50 µM (HT-29 cells) [%]
O=C(NC(=[Se])Nc1ccccc1)c1ccccc1 [Compound 1a]	67.8	57.1	70.5	6.6	56.9	23.4
Cc1ccc(NC(=[Se])NC(=O)c2ccccc2)cc1 [Compound 1b]	75.8	61.1	64.2	12.6	60.4	28
O=C(NC(=[Se])Nc1ccc(C(F)(F)F)cc1)c1ccccc1 [Compound 1d]	84.9	38.7	73.6	21.9	97.3	25.1
Cc1ccc(NC(=[Se])NC(=O)c2ccccc2Cl)cc1 [Compound 2b]	87.9	66.6	60.1	24.7	80.2	46.1
COc1ccc(NC(=[Se])NC(=O)c2ccccc2Cl)cc1 [Compound 2c]	84.9	66.7	62.6	26.4	76.3	44.8
O=C(NC(=[Se])Nc1ccc(C(F)(F)F)cc1)c1ccccc1Cl [Compound 2d]	100	37.6	94.2	10.4	87.1	51.7
O=C(NC(=[Se])Nc1ccc(Cl)cc1)c1ccccc1Cl [Compound 2e]	96.7	18.6	118	16	77.8	57.9
CSc1ccc(Cl)c(C(=O)NC(=[Se])Nc2ccccc2)c1 [Compound 3a]	88.8	49.9	84.1	23.1	71.1	42.7
COc1ccc(NC(=[Se])NC(=O)c2cc(SC)ccc2Cl)cc1 [Compound 3c]	79	27.6	73.9	23.7	67.9	44.4
CSc1ccc(Cl)c(C(=O)NC(=[Se])Nc2ccc(Cl)cc2)c1 [Compound 3e]	79.4	35.8	105	32.4	76.6	73
O=C(NC(=[Se])Nc1ccccc1)c1cccnc1Cl [Compound 4a]	83.1	67.6	68.8	29.3	99.1	34.1
Cc1ccc(NC(=[Se])NC(=O)c2cccnc2Cl)cc1 [Compound 4b]	87	64.8	77.6	32.4	99.2	51.7
COc1ccc(NC(=[Se])NC(=O)c2cccnc2Cl)cc1 [Compound 4c]	88.9	68.5	86.6	33	99.1	51.6
O=C(NC(=[Se])Nc1ccc(C(F)(F)F)cc1)c1cccnc1Cl [Compound 4d]	90.5	62.2	67.1	48.9	103	62.2
O=C(NC(=[Se])Nc1ccc(Cl)cc1)c1cccnc1Cl [Compound 4e]	92.1	63.5	90.6	60.2	93.4	67
O=C(NC(=[Se])Nc1ccccc1)c1cccs1 [Compound 5a]	76.8	43.7	70.3	27.4	73.5	39

SMILES	activity at 10 µM (HTB-54 cells) [%]	activity at 50 µM (HTB-54 cells) [%]	activity at 10 µM (MCF-7 cells) [%]	activity at 50 µM (MCF-7 cells) [%]	activity at 10 µM (HT-29 cells) [%]	activity at 50 µM (HT-29 cells) [%]
Cc1ccc(NC(=[Se])NC(=O)c2cccs2)cc1 [Compound 5b]	66.8	66.7	64.2	17.5	82.8	36.8
COc1ccc(NC(=[Se])NC(=O)c2cccs2)cc1 [Compound 5c]	85	60.2	90.7	11.8	57.5	34.6
O=C(NC(=[Se])Nc1ccc(Cl)cc1)c1cccs1 [Compound 5e]	73.2	58.1	77.6	20.8	78.1	37.8
Cc1ccc(NC(=[Se])NC(=O)c2ccco2)cc1 [Compound 6b]	73	1.6	64.9	5.8	87.6	48.4
COc1ccc(NC(=[Se])NC(=O)c2ccco2)cc1 [Compound 6c]	74.2	3.8	70	13.1	74.5	35.9
O=C(NC(=[Se])Nc1ccc(C(F)(F)F)cc1)c1ccco1 [Compound 6d]	59.4	4.6	71.7	11.9	81.5	18.7
O=C(NC(=[Se])Nc1ccc(Cl)cc1)c1ccco1 [Compound 6e]	84.1	4	62.7	11.2	75.2	31.1
COc1ccc(NC(=[Se])NC(=O)C23CC4CC(CC(C4)C2)C3)cc1 [Compound 7c]	98.4	48.3	91.8	24.3	59.6	34
O=C(NC(=[Se])Nc1ccc(C(F)(F)F)cc1)C12CC3CC(CC(C3)C1)C2 [Compound 7d]	92.9	79.8	87.9	25.3	49.5	29.6
O=C(NC(=[Se])Nc1ccc(Cl)cc1)C12CC3CC(CC(C3)C1)C2 [Compound 7e]	111	36.4	83.9	39	53.5	45.9
O=C(/C=C/c1ccccc1)NC(=[Se])Nc1ccccc1 [Compound 8a]	65.2	49.7	75.8	15.3	98.6	34.2
O=C(C=Cc1ccccc1)NC(=[Se])Nc1ccc(C(F)(F)F)cc1 [Compound 8d]	90	41.1	91.1	18.5	76	37.3
O=C(C=Cc1ccccc1)NC(=[Se])Nc1ccc(Cl)cc1 [Compound 8e]	76.1	31.2	69.6	11.8	85.2	40.6
O=C(NC(=[Se])Nc1ccccc1)c1cc2ccccc2s1 [Compound 9a]	66.9	3.3	64.9	43.4	62	28.6
Cc1ccc(NC(=[Se])NC(=O)c2cc3ccccc3s2)cc1 [Compound 9b]	79	19	76.8	62.8	64.3	36.2
